Measurements from PubChem BioAssay AID179 (DTP/NCI, 2004).
Activity calls are given as the source filed them.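 The calls were made as follows: active = compounds giving half or more protection of infected cells from virus-caused growth loss, again on retest; inactive = the rest.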

System: CEM cells HIV-1 protection, formazan growth assay
Test: NCI AIDS Antiviral Assay
Details: for IC50: measured here: growth of uninfected CEM cells
Outline: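 Human CEM cells, uninfected and HIV-1-infected, exposed to five drug concentrations; growth measured by soluble formazan assay and scored as percent protection from infection, with protecting compounds retested.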

Cc1cc(=O)[nH]c(NN2C(Cl)C(=O)C2c2ccccc2O)n1 (centres undefined) was tested, and the EC50 was over 58.9 µM and the IC50 was 3.63 µM.
CCCCCCC(=O)CC(=O)C(=O)Nc1ccccc1C was tested, and the EC50 was over 25.1 µM and the IC50 was over 25.1 µM.
CC1(C)CCc2cc3c(cc2O1)OC(C)(C)C1c2c(ccc4c2CCC(C)(C)O4)OC31 (centres undefined) was tested, and the outcome was “inactive”.
Cc1c(Cc2ccccc2)n(C(C)OCCO)c(=O)[nH]c1=O (centres undefined) was tested, and the EC50 was over 200 µM and the IC50 was over 200 µM.
CC(=O)Oc1cc(C(F)(F)F)ccc1C(=O)OC1(C)OC(=O)c2ccc(C(F)(F)F)cc2O1 (centres undefined) was tested, and the EC50 was over 200 µM and the IC50 was 41.7 µM.
Work on CCc1ccccc1NC(=O)C1=C(C)NC(C)=C(C(=O)Nc2ccccc2CC)C1c1cccc([N+](=O)[O-])c1 yielded an EC50 of over 19.1 µM and an IC50 of over 19.1 µM.
Work on O=C1/C(=C/c2cccc([N+](=O)[O-])c2)Cc2ccccc21 yielded an EC50 of over 200 µM and an IC50 of over 200 µM.
Compound N#Cc1c(Cl)nc2ccccc2c1N=[N+]=[N-] has an EC50 of over 200 µM and an IC50 of 0.912 µM.
Compound CC1(C)OC2O[C@H](C3OC[C@H]4O[C@@H](n5ccc(=O)[nH]c5=O)C(O)[C@H]4N3O)[C@@H]3OC(C)(C)O[C@@H]3C2O1 (some centres undefined) has an EC50 of over 200 µM and an IC50 of 105 µM.
CCc1c(Cc2ccccc2)n(COCCCO[Si](C)(C)C(C)(C)C)c(=O)[nH]c1=O gave an EC50 of over 200 µM and an IC50 of 10 µM.
For CCN1CCNc2c3cc(OC)ccc3nc3c([N+](=O)[O-])ccc1c23, the EC50 was over 200 µM and the IC50 was 0.11 µM.
CNC(=O)N1N[C@H](c2ccccc2)[C@@H]1c1ccccc1 gave an EC50 of over 200 µM and an IC50 of 42.7 µM.
CCN1C(=O)CS/C1=N/NC(=O)C(O)(c1ccccc1)C1C=CC=CC1 (centres undefined) showed an EC50 of over 200 µM and an IC50 of over 200 µM.
In the case of CN(CCCNC(=O)c1cc(-c2ccccc2)nc2ccccc12)CCCNC(=O)c1cc(-c2ccccc2)nc2ccccc12, the EC50 is reported as over 20 µM and the IC50 is reported as 3.39 µM.
With N.N.N.N.N.O=C([O-])c1nn[n-]n1.[Cl-].[Co+3] the EC50 was over 16.2 µM and the IC50 was over 16.2 µM.
For O=NCC(=O)OCc1ccccc1, the EC50 was over 200 µM and the IC50 was over 200 µM.
For CCOC(=O)N/N=C(/N)Cc1ccccc1, the EC50 was over 200 µM and the IC50 was over 200 µM.
Work on CCOc1cc2c(cc1O)/C(=N/NS(=O)(=O)c1ccc(C)cc1)C[C@@H]1[C@@H]2CC[C@]2(C)[C@@H](O)CC[C@@H]12 yielded an EC50 of over 200 µM and an IC50 of 0.229 µM.
CC1=NNC(=O)C1N=Nc1c(C)n(C)n(-c2ccccc2)c1=O (centres undefined) was tested, and the EC50 was over 200 µM and the IC50 was 16.6 µM.
Work on c1ccc(C2=NC3OC2c2ccccc23)cc1 (centres undefined) yielded an EC50 of over 200 µM and an IC50 of over 200 µM.
Work on CC(C)(C)C(=CS(=O)/N=C/c1ccccc1)C(C)(C)C (centres undefined) yielded an EC50 of over 24.5 µM and an IC50 of over 24.5 µM.
With Cc1cc(C)cc(/C(C#N)=C/c2ccc(N(C)C)cc2)c1 the EC50 was over 2 µM and the IC50 was 0.102 µM.
N#C/C(=C\c1ccc(-c2ccccc2)cc1)C(=O)c1ccccc1 gave an EC50 of over 83.2 µM and an IC50 of 27.5 µM.
CC1(C)O[C@H]2[C@H](O)C[C@](O)(CO)C[C@H]2O1 was tested, and the outcome was “inactive”.
For CCN(CC)CCC(=O)N1C/C(=C/c2ccccc2)C(=O)/C(=C\c2ccccc2)C1, the EC50 was over 200 µM and the IC50 was 0.407 µM.
For Cc1nc(C)c(N2CCN(C#N)CC2)c(=O)[nH]1, the EC50 was over 200 µM and the IC50 was over 200 µM.
Work on NC1=NC(Cn2nc(-c3ccccc3)c3ccccc3c2=O)=NNC(=O)N1 yielded an EC50 of over 20 µM and an IC50 of over 20 µM.
Work on CO/N=C1/c2sccc2[C@H](NC(=O)CNC(=O)OC(C)(C)C)[C@@H]1O yielded an EC50 of over 200 µM and an IC50 of over 200 µM.
In the case of CSc1cc(-c2ccccn2)nc(-c2ccccn2)c1.CSc1cc(-c2ccccn2)nc(-c2ccccn2)c1.[Mn+2].[O-][Cl+3]([O-])([O-])[O-], the EC50 is reported as over 0.2 µM and the IC50 is reported as 0.0631 µM.
With COc1cc(C=Nc2ccc(C(C)C)cc2)cc(OC)c1OC the EC50 was over 16.6 µM and the IC50 was over 16.6 µM.
O=c1/c(=C/c2ccccc2F)sc2nc3ccccc3n12 showed an EC50 of over 1.82 µM and an IC50 of over 1.82 µM.
Cc1nc(N)nc(N)c1CCCCc1ccccc1 was tested, and the outcome was “inactive”.
In the case of Cc1cc(=O)[nH]c(CNC(=O)Cc2ccccc2)n1, the EC50 is reported as over 977 µM and the IC50 is reported as over 977 µM.
COc1ccc(C(=O)c2ccc(OC)c(S(=O)(=O)OC)c2)cc1S(=O)(=O)OC was tested, and the EC50 was over 43.7 µM and the IC50 was over 43.7 µM.
For COC(=O)C1CC(=O)CCC1c1ccccc1 (centres undefined), the EC50 was over 347 µM and the IC50 was over 347 µM.
Work on CCOC(=O)C(/C=N\C(=S)Nc1c(CC)cccc1C(C)(C)C)=C(/O)c1ccccc1 yielded an EC50 of over 200 µM and an IC50 of over 200 µM.
With BrCCCCCOc1ccc(-c2c3ccccc3c(-c3ccc(OCCCCCBr)cc3)c3ccccc23)cc1 the EC50 was over 100 µM and the IC50 was over 100 µM.
C[N+]1=C(c2cccnc2/C=N/O)OCC1(C)C was tested, and the EC50 was over 692 µM and the IC50 was 417 µM.
COC(=O)C(CCC(=O)O)N1C(=O)c2ccccc2C1=O (centres undefined) was tested, and the EC50 was over 200 µM and the IC50 was over 200 µM.
Compound COC(=O)c1cc(C)ccc1CC(Cc1ccccc1C)C(=O)OC (centres undefined) has an EC50 of over 200 µM and an IC50 of 37.2 µM.
In the case of O=C(Nc1cc(Cl)c(Cl)cc1Cl)C(=O)C(C(=O)c1ccccc1)C1OC(=O)c2ccccc21 (centres undefined), the outcome is reported as “inactive”.
Work on COc1cc2c3c(c1)ncn3C(=O)C(c1ccccc1)S2 (centres undefined) yielded an EC50 of over 200 µM and an IC50 of 87.1 µM.
With CCN(CCN(CC)C(=O)NC)C(=O)NC the EC50 was over 200 µM and the IC50 was over 200 µM.
Compound CC(=O)OC(C)C1C2=C(C(=O)CC1(C)O)C(=O)c1c(ccc(-c3ccc4c(c3O)C(=O)C3=C(C4=O)C(C(C)OC(C)=O)C(C)(O)CC3=O)c1O)C2=O (centres undefined) has an EC50 of over 66.1 µM and an IC50 of 0.263 µM.
